Reference: patent US20170216426A1, “COMPOSITIONS AND METHODS FOR TRANSIENT IMMUNE RESPONSE MODULATION DURING VACCINATION” (priority 2014, published 2017)
Entries after “also recorded” stand apart in the source; their conditions may differ.

Legend:
immature/T1 B cells = assay: AID mRNA expression in cultured immature/T1 B cells (quantitative RT-PCR); type: cell-based, mice
Experimental: Twenty-four hours after culture, B cells were harvested in TRIzol-LS reagent for AID mRNA quantification.
Expression of AID mRNA was determined by a quantitative RT-PCR^1. Briefly, sorted immature/T1 and mature follicular B cells were lysed in TRIzol LS before and after cultures. Total RNA was prepared from these cells using standard phenol/chloroform extraction method, and then cDNA was prepared using SuperScript III reverse transcriptase (Invitrogen) with oligo(dT)20 primers (Invitrogen). One-twentieth volume of cDNA samples were amplified in a primary PCR using Ramp-Taq DNA polymerase (Denville Scientific) with AID118 and AID119 primers^14. Primary PCR condition: initial incubation of 95° C. for 7 min followed by 15 cycles of amplification steps (95° C. for 30 s, 58° C. for 20 sec, and 72° C. for 45 sec.). Primary PCR products were then subjected to quantitative PCR using SYBR Green core reagents and AIDF2/AIDR2 primers^5.

2F5 dKI mice [1] = settings: 2F5 dKI mice treated with chloroquine for one week
2F5 dKI mice [2] = assay: Spleen B-cell numbers and GC responses in 2F5 dKI mice after chloroquine, MPER liposome immunization and anti-CD25 Ab (FIG. 20); type: in vivo
[3] = Humoral responses after chloroquine treatment (FIG. 17); type: in vivo
3H9 mice [4] = test system: 3H9 mice
From the text: Specific B-lineage developmental compartments were identified as described^1: CD43^+ B (pre-pro-B and pro-B; B220^lowCD93^+IgM^−IgD^−CD43^+), large pre-B (B220^lowCD93^+IgM^− IgD^−CD43^−FSC^high), small pre-B (B220^lowCD93^+IgM^−IgD^−CD43^−FSC^low), immature/T1 B (B220^lowCD93^+IgM^+IgD^+/−CD21^−CD23^−) and mature B (B220^hiCD93^−) cells in bone marrow, and splenic MF B (B220^hiCD93^−IgM^intIgD^hiCD21^intCD23^hi) cells of naïve mice, and germinal center B (GL-7^+B220^highFas^+IgD^−) cells in spleen of NP-CGG/alum immunized mice. Specific developmental compartments were designated for B6, and then identical gatings were used for all samples. Cells that take up propidium iodide were excluded from our analyses. Labeled cells were analyzed/sorted in a FACS Canto (BD Bioscience) or FACS Vantage with DIVA option (BD Bioscience). Flow cytometric data were analyzed with FlowJo software (Treestar Inc.).

3H9 mice [5] = assay: DNA avidity index of single immature/T1 B-cell N-cultures from treated 3H9 mice (ELISA); type: in vivo
Experimental: Single immature/T1 B cells and MF B cells from unimmunized B6 and Myd88^−/− mice, and control- and chloroquine-treated 3H9 mice were expanded in the presence of NB-21.2D9 feeder cells (N-cultures). Briefly, single immature/T1 B cells and MF B cells were directly sorted into each well of 96-well plates and cultured in the presence of exogenous recombinant IL-4 (2 ng/ml, Peprotech) and CD154-/BAFF-/IL-21-expressing NB-21.2D9 cells in RPMI 1640 (Invitrogen) supplemented with 10% HyClone FBS (Thermo scientific), 2-mercaptoethanol (5.5×10^−5 M), penicillin (100 units/ml), streptomycin (100 μg/ml), HEPES (10 mM), sodiumpyruvate (1 mM), and MEM nonessential amino acid (1×; all Invitrogen). Two thirds of culture media were replaced with fresh media daily from day 2 to day 8. On days 9-10, culture supernatants were harvested for ELISA determinations.
Concentrations of total IgG in culture supernatants were determined by standard ELISA. Briefly, 96-well ELISA plates (Corning) were coated with anti-mouse Igκ Ab and anti-mouse Igλ Ab (2 μg/ml each; Southern Biotech) in carbonate buffer for overnight. After washing, plates were blocked with PBS containing 0.5% BSA for 1 h. Diluted samples (at 1:100 and 1:1,000 dilutions in PBS containing 0.5% BSA and 0.1% Tween-20) and serially diluted standard anti-DNA mAb (HYB331-01; Abcam) were then applied to the plates and incubated for overnight. After washing, HRP-conjugated anti-mouse IgG (Southern Biotech) was added to the plates and incubated for 2 h. The HRP-activity was visualized with TMB substrate reagents (Biolegend) and OD450-OD620 was measured by spectrophotometer (Bio-Rad).
Anti-DNA IgG was measured by ELISA^19. […] Bound IgG was detected by HRP-conjugated anti-mouse IgG and TMB substrates as described above. […]
DNA avidity index, [anti-DNA IgG]/[total IgG], represents proportion of DNA-binding IgG to total IgG in reference to the anti-DNA mAb. To compare DNA avidity indices of individual immature/T1 B cells from control- and chloroquine-treated 3H9 mice, culture supernatant samples that contain total IgG (range: 1-3 μg/ml) were analyzed. […]

[6] = test system: human CD40 expressing HEK blue cells; assay: HEK-Blue CD40L cells SEAP reporter assay of CD40L bioactivity; type: cell-based; settings: liposome-conjugated vs non-conjugated
From the text: HEK-Blue CD40L cells (Invivogen) were used to measure the bioactivity of CD40L through the secretion of embryonic alkaline phosphatase (SEAP) upon NF-κB activation following CD40 stimulation.

[7] = chloroquine-treated vs control 3H9 mice

With `CCCCO` [n-butanol] the “AID expression in immature/T1 B cells stimulated with CpG” value (immature/T1 B cells; addition of n-butanol (0.1, 0.3, 1.0%)) was “did not significantly change”, the “synergistic effects of CpG and anti-μ co-stimulation on AID expression in immature/T1 B cells” value (immature/T1 B cells; n-butanol at 1.0%) was “completely abrogated” and the “synergistic effects of CpG and anti-μ co-stimulation on AID expression in immature/T1 B cells” value (immature/T1 B cells; n-butanol, dose-dependent) was “suppressed”.

In the case of `CCN(CC)CCCC(C)Nc1ccnc2cc(Cl)ccc12` (stereo not shown) [chloroquine], the “AID expression in immature/T1 B cells elevated by CpG or CpG+anti-μ stimulation” value (immature/T1 B cells; in the presence of 2.0 μg/ml of chloroquine, 24 h culture) is reported as “abrogated”, the “synergistic AID up-regulation” value (immature/T1 B cells; in vitro) is reported as “blocked” and the “splenic mature B-cell compartments” value (2F5 dKI mice [1]) is reported as “increases”. For the same molecule, the “absolute cell numbers of splenic transitional-1 (T1) and T2” value (2F5 dKI mice [2]; consecutive injections with chloroquine and MPER liposome, 14 days after last chloroquine injection, 12 days after immunization) was “increased”, the “tolerizing deletion of 2F5 dKI B cells” value (2F5 dKI mice [2]; injections of chloroquine) was “release” and the GC responses (2F5 dKI mice [2]; vs controls (PBS+control IgG), after MPER liposome immunization) was “abolished”. For the same molecule, the “duration of suppression of humoral responses” value [3] was less than 1 week, the “numbers of large- and small pre-B cells” value (3H9 mice [4]; 3H9 mice, multiple i.p. injections of chloroquine for up to 8 days, bone marrow) was “decreased” and the “central B-cell tolerance” value (3H9 mice [4]; mice treated with chloroquine) was “relaxed”. The “frequency of immature/T1 B cells with higher DNA avidity” value (3H9 mice [5]; DNA avidity index 0.178 cut-off (average of control 3H9), chloroquine-treated 3H9 mice) was “increased”, the “average anti-DNA avidity indices of individual immature/T1 B cells” value (3H9 mice [5]; [7]) was “significantly higher; also recorded: more avidly” and the “distribution of anti-DNA avidity indices” value (3H9 mice [5]; [7]) was “shifted toward higher avidity cohorts”.

B1: CD40L: CD40 ligand conjugated to liposomes (protein, UniProt P29965 113-261, looked up)
CD40 ligand, soluble form: MQKGDQNPQIAAHVISEASSKTTSVLQWAEKGYYTMSNNLVTLENGKQLTVKRQGLYYIYAQVTFCSNREASSQAPFIASLCLKSPGRFERILLRAANTHSSAKPCGQQSIHLGGVFELQPGASVFVNVTDPSQVSHGTGFTSFGLLKL
modifications: conjugated to liposomes
For B1, the “effect of liposome conjugation on CD40 activation” value [6] was “enhances”.
